Columns and labels:
SK-MEL-2 = assay: NCI-60 one-dose SRB screen (Melanoma); format: cell-based; conditions: Homo sapiens, single dose 10 µM, 48 h, read-out: Growth inhibition percent (GI %)
Procedure: (§1) The National Cancer Institute (NCI) Developmental Therapeutic Program (www.dtp.nci.nih.gov) selected the 20 novel synthesized compounds 4a-e, 5a-e, 6a-c, 9a-e, 10 and 11 to test for their anticancer activity at a single dose of 10 µM using SRB assay. […] Supplementary Data S3; Table S1 presents the detailed screening results of the most promising compounds. The preliminary screening’s detailed results for the remaining compounds are elucidated in the (Supplementary Data S3; Table S2).
(§2) The guidelines of the Drug Evaluation Branch’s protocol at the NCI in Bethesda served as the basis for the in vitro anticancer screening assays. at one dose 10 µM against a panel of 60 cancer cell lines. The human tumor cell lines used belonged to nine panels: leukemia, melanoma, lung, colon, CNS, ovarian, renal, prostate and breast cancers using the sulforhodamine B (SRB) assay in a 48 h drug exposure protocol.

SK-MEL-5 = assay: NCI-60 one-dose SRB screen (Melanoma); format: cell-based; conditions: Homo sapiens, single dose 10 µM, 48 h, read-out: Growth inhibition percent (GI %)
Procedure: as §1, §2

MALME-3M = assay: NCI-60 one-dose SRB screen (Melanoma); format: cell-based; conditions: Homo sapiens, single dose 10 µM, 48 h, read-out: Growth inhibition percent (GI %)
Procedure: as §1, §2

UACC-62 = assay: NCI-60 one-dose SRB screen (Melanoma); format: cell-based; conditions: Homo sapiens, single dose 10 µM, 48 h, read-out: Growth inhibition percent (GI %)
Procedure: as §1, §2

UACC-257 = assay: NCI-60 one-dose SRB screen (Melanoma); format: cell-based; conditions: Homo sapiens, single dose 10 µM, 48 h, read-out: Growth inhibition percent (GI %)
Procedure: as §1, §2

SK-MEL-28 = assay: NCI-60 one-dose SRB screen (Melanoma); format: cell-based; conditions: Homo sapiens, single dose 10 µM, 48 h, read-out: Growth inhibition percent (GI %)
Procedure: as §1, §2

M14 = assay: NCI-60 one-dose SRB screen (Melanoma); format: cell-based; conditions: Homo sapiens, single dose 10 µM, 48 h, read-out: Growth inhibition percent (GI %)
Procedure: as §1, §2

PC-3 = assay: NCI-60 one-dose SRB screen (Prostate Cancer); format: cell-based; conditions: Homo sapiens, single dose 10 µM, 48 h, read-out: Growth inhibition percent (GI %)
Procedure: as §1, §2

DU-145 = assay: NCI-60 one-dose SRB screen (Prostate Cancer); format: cell-based; conditions: Homo sapiens, single dose 10 µM, 48 h, read-out: Growth inhibition percent (GI %)
Procedure: as §1, §2

hCA XII = hCA XII (Homo sapiens, UniProt O43570); assay: CA inhibitory activity, spectrophotometric p-NPA assay; format: biochemical; conditions: p-NPA substrate, pH 7.5, 25 °C, triplicate; read-out: IC50 (µM) ± SD hCA XII
HS 578T = assay: NCI-60 one-dose SRB screen (Breast Cancer); format: cell-based; conditions: Homo sapiens, single dose 10 µM, 48 h, read-out: Growth inhibition percent (GI %)
Procedure: as §1, §2

BT-549 = assay: NCI-60 one-dose SRB screen (Breast Cancer); format: cell-based; conditions: Homo sapiens, single dose 10 µM, 48 h, read-out: Growth inhibition percent (GI %)
Procedure: as §1, §2

T-47D = assay: NCI-60 one-dose SRB screen (Breast Cancer); format: cell-based; conditions: Homo sapiens, T47D, single dose 10 µM, 48 h, read-out: Growth inhibition percent (GI %)
Procedure: as §1, §2

MDA-MB-231/ATCC = assay: NCI-60 one-dose SRB screen (Breast Cancer); format: cell-based; conditions: Homo sapiens, single dose 10 µM, 48 h, read-out: Growth inhibition percent (GI %)
Procedure: as §1, §2

MDA-MB-468 = assay: NCI-60 one-dose SRB screen (Breast Cancer); format: cell-based; conditions: Homo sapiens, single dose 10 µM, 48 h, read-out: Growth inhibition percent (GI %)
Procedure: as §1, §2

MCF-7 = assay: NCI-60 one-dose SRB screen (Breast Cancer); format: cell-based; conditions: Homo sapiens, MCF7, single dose 10 µM, 48 h, read-out: Growth inhibition percent (GI %)
Procedure: as §1, §2

HCC-2998 = assay: NCI-60 one-dose SRB screen (Colon Cancer); format: cell-based; conditions: Homo sapiens, single dose 10 µM, 48 h, read-out: Growth inhibition percent (GI %)
Procedure: as §1, §2

SW-620 = assay: NCI-60 one-dose SRB screen (Colon Cancer); format: cell-based; conditions: Homo sapiens, single dose 10 µM, 48 h, read-out: Growth inhibition percent (GI %)
Procedure: as §1, §2

HT29 = assay: NCI-60 one-dose SRB screen (Colon Cancer); format: cell-based; conditions: Homo sapiens, HT-29, single dose 10 µM, 48 h, read-out: Growth inhibition percent (GI %)
Procedure: as §1, §2

HCT-116 = assay: NCI-60 one-dose SRB screen (Colon Cancer); format: cell-based; conditions: Homo sapiens, single dose 10 µM, 48 h, read-out: Growth inhibition percent (GI %)
Procedure: as §1, §2

KM12 = assay: NCI-60 one-dose SRB screen (Colon Cancer); format: cell-based; conditions: Homo sapiens, single dose 10 µM, 48 h, read-out: Growth inhibition percent (GI %)
Procedure: as §1, §2

COLO 205 = assay: NCI-60 one-dose SRB screen (Colon Cancer); format: cell-based; conditions: Homo sapiens, single dose 10 µM, 48 h, read-out: Growth inhibition percent (GI %)
Procedure: as §1, §2

HCT-15 = assay: NCI-60 one-dose SRB screen (Colon Cancer); format: cell-based; conditions: Homo sapiens, single dose 10 µM, 48 h, read-out: Growth inhibition percent (GI %)
Procedure: as §1, §2

786-0 = assay: NCI-60 one-dose SRB screen (Renal Cancer); format: cell-based; conditions: Homo sapiens, single dose 10 µM, 48 h, read-out: Growth inhibition percent (GI %)
Procedure: as §1, §2

A498 = assay: NCI-60 one-dose SRB screen (Renal Cancer); format: cell-based; conditions: Homo sapiens, single dose 10 µM, 48 h, read-out: Growth inhibition percent (GI %)
Procedure: as §1, §2

UO-31 = assay: NCI-60 one-dose SRB screen (Renal Cancer); format: cell-based; conditions: Homo sapiens, single dose 10 µM, 48 h, read-out: Growth inhibition percent (GI %)
Procedure: as §1, §2

ACHN = assay: NCI-60 one-dose SRB screen (Renal Cancer); format: cell-based; conditions: Homo sapiens, single dose 10 µM, 48 h, read-out: Growth inhibition percent (GI %)
Procedure: as §1, §2

RXF 393 = assay: NCI-60 one-dose SRB screen (Renal Cancer); format: cell-based; conditions: Homo sapiens, single dose 10 µM, 48 h, read-out: Growth inhibition percent (GI %)
Procedure: as §1, §2

TK-10 = assay: NCI-60 one-dose SRB screen (Renal Cancer); format: cell-based; conditions: Homo sapiens, single dose 10 µM, 48 h, read-out: Growth inhibition percent (GI %)
Procedure: as §1, §2

CAKI-1 = assay: NCI-60 one-dose SRB screen (Renal Cancer); format: cell-based; conditions: Homo sapiens, single dose 10 µM, 48 h, read-out: Growth inhibition percent (GI %)
Procedure: as §1, §2

Sequence of hCA XII (O43570 25-354): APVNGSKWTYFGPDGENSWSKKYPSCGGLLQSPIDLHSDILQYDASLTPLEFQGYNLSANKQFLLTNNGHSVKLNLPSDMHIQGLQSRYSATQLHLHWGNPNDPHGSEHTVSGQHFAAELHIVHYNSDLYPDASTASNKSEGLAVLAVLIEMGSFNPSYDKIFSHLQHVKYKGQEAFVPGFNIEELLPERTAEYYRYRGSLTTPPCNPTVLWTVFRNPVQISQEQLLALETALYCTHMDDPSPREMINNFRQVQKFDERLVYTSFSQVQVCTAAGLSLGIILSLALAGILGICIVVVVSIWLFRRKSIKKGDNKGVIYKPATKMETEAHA

With `Cc1ccc(-c2nn(-c3ccc(S(N)(=O)=O)cc3)cc2C(=O)OCC(=O)Nc2ccc(S(N)(=O)=O)cc2)cc1` [Compound 4b, 2-Oxo-2-[(4-sulfamoylphenyl)amino] ethyl 1-(4-sulfamoylphenyl)-3-(p-tolyl)-1H-pyrazole-4-carboxylate] the inhibition at 10 µM (SK-MEL-2) was 8.94%, the inhibition at 10 µM (SK-MEL-5) was < 5% and the inhibition at 10 µM (MALME-3M) was < 5%. For the same compound, the inhibition at 10 µM (UACC-62) was < 5%, the inhibition at 10 µM (UACC-257) was 5.42% and the inhibition at 10 µM (SK-MEL-28) was < 5%. The inhibition at 10 µM (M14) was < 5%, the inhibition at 10 µM (PC-3) was < 5% and the inhibition at 10 µM (DU-145) was < 5%. It also gave an IC50 (hCA XII) of 0.17 ± 0.006 µM, an inhibition at 10 µM (HS 578T) of 6.42% and an inhibition at 10 µM (BT-549) of 6.7%. It also gave an inhibition at 10 µM (T-47D) of 17.5%, an inhibition at 10 µM (MDA-MB-231/ATCC) of 6.64% and an inhibition at 10 µM (MDA-MB-468) of 18.6%. For the same compound, the inhibition at 10 µM (MCF-7) was < 5%, the inhibition at 10 µM (HCC-2998) was < 5% and the inhibition at 10 µM (SW-620) was < 5%. The inhibition at 10 µM (HT29) was 11.6%, the inhibition at 10 µM (HCT-116) was < 5% and the inhibition at 10 µM (KM12) was < 5%. For the same compound, the inhibition at 10 µM (COLO 205) was < 5%, the inhibition at 10 µM (HCT-15) was < 5% and the inhibition at 10 µM (786-0) was 9.87%. The inhibition at 10 µM (A498) was < 5%, the inhibition at 10 µM (UO-31) was 14.5% and the inhibition at 10 µM (ACHN) was < 5%. For the same compound, the inhibition at 10 µM (RXF 393) was < 5%, the inhibition at 10 µM (TK-10) was < 5% and the inhibition at 10 µM (CAKI-1) was 15.2%.

Reference: article PMC12454493, “Insight on novel sulfamoylphenyl pyrazole derivatives as anticancer carbonic anhydrase inhibitors” (Molecular Diversity, 2024)
